Test results as given in patent US5763597A, “Orally active adenosine kinase inhibitors” (priority 1996, dated 1998).
Each block holds one compound with its values, some of them ahead of it.

Assays:
[1] = system: carrageenan paw swelling in rats; experiment: Anti-inflammatory activity, carrageenan paw swelling; format: in vivo; conditions: rat, swelling after 3 hours; for Carrageenan Paw (% inh) ip: 10 mg/kg ip, 30 min before carrageenan; for Carrageenan Paw (% inh) po: 10 mg/kg po, 1 h before carrageenan
adenosine kinase = experiment: AK inhibition (adenosine kinase activity, [U-14C] adenosine); format: biochemical, partially purified pig heart or recombinant human; conditions: 0.5 μM adenosine, 1 mM ATP, pH 7.0, 20 min; pig heart or recombinant human enzyme
Experimental: Adenosine kinase activity was measured essentially as described by Yamada et al. Biochim. Biophys. Acta 660, 3643 (1988) with a few minor modifications. Assay mixtures contained 50 mM TRIS-maleate buffer, pH 7.0, 0.1% BSA, 1 mM ATP 1 mM MgCl2, 0.5 μM [U-^14 C] adenosine (400-600 mCi/mmol) and varying duplicate concentrations of inhibitor. […] The amount of ^14 C-AMP was quantified by scintillation counting.

[2] = system: formalin-induced pain in rats; experiment: Analgesic activity, formalin paw model; format: in vivo; conditions: rat, oral, 20 mg/kg; for % Inhibition Phase 1 Composite score: Phase 1 (1.7-5 min post-formalin); for % Inhibition Phase 2 Composite score: Phase 2 (10.3-30 min post-formalin); for % Inhibition Phase 2 Licking/biting: Phase 2, licking/biting incidences
From the text: Pharmacol. Exper. Ther., 250:3, 915-922 (1989). See also, Life Sciences 51:171-76 (1992). These models measure pain avoidance and tolerance in response to a regulated stimulus, and compare the response of animals before and after they are given test compound. Formalin Paw Assay In this assay, injection of formalin, an irritant, into the hindpaw of rats typically evokes a biphasic response of pain-related behaviors. […] Phase I behavior is thought to be a direct effect of the irritant on nociceptors at the injection site while phase 2 behavior is thought to include a hyperalgesic component mediated by sensitization of neuronal elements within the spinal cord. Studies from other laboratories have found the first portion of Phase 2 (sometimes referred to as Phase 2a) to be most responsive to pharmacological manipulation. Rats (male, Simonsen) weighing between 100-200 g, are used in the present experiments. For screening purposes drugs are administered orally 90 min prior to initiation of formalin test. […] The rat is then immediately placed in a separate plexiglass box and scoring (described below) of the animal's behavior is begun at 1.7 min after formalin injection. […] This sequence is repeated over a 30 min period. […] Scores are continuously recorded directly onto an Excel spreadsheet.

[3] = system: maximal electroshock seizures (hind limb tonic extension) in male SA rats; experiment: Anticonvulsant activity, maximal electroshock (MES) model; format: in vivo; conditions: rat, ip; ">5" = HTE inhibited in fewer than 50% of animals at 5 mg/kg screen; ">>" (written >) = no activity, "<" = maximal activity at stated dose; read-out: Anticonvulsant ED50 (MES) ip
[4] = system: liver enzymes and total bilirubin in female SA rats; experiment: Liver toxicity (serum liver enzymes and bilirubin); format: in vivo; conditions: rat, 2 x 37.5 μmole/kg iv infusion, 12 h after second dose; for Total Bilirubin: vehicle 0.10 ±0.04; for SGPT: vehicle 80 ±10; for SGOT: vehicle 102 ±12; for Alkaline Phosphatase: vehicle 140 ±50
Experimental: Female SA rats (150-200 g) were anesthetized with halothane and a chronic catheter was placed in the internal jugular vein. The animals were allowed to recover for 3 days. […] Twelve hours later, an additional 37.5 μmole/kg was infused over 40 minutes (total dose=75 μmole/kg). Twelve hours after the second dose, the animals were anesthetized with halothane and exsanguinated through the descending aorta. Liver enzymes (serum glutamic-oxaloacetic transaminase (SGOT), serum glutamic-pyruvic transaminase (SGPT), alkaline phosphatase) and total bilirubin in the serum samples were determined by a commercial laboratory.

SMILES: CCOCc1ccc(Nc2ncnc3c2c(-c2ccccc2)cn3[C@@H]2O[C@H](C)[C@@H](O)[C@H]2O)cc1 [compound 125]
Carrageenan Paw (% inh) ip [1]: 24.4 % inh
Carrageenan Paw (% inh) po [1]: 0.0 % inh
IC50 (adenosine kinase): 2 nM

SMILES: CCOc1ccc(Nc2ncnc3c2c(-c2ccccc2)cn3[C@@H]2O[C@H](C)[C@@H](O)[C@H]2O)cc1 [compound 28]
% Inhibition Phase 1 Composite score [2]: 22.5%
% Inhibition Phase 2 Composite score [2]: 46.8%
% Inhibition Phase 2 Licking/biting [2]: 83%
Carrageenan Paw (% inh) ip [1]: 22.2 % inh
Carrageenan Paw (% inh) po [1]: 31.0 % inh
IC50 (adenosine kinase): 4 nM

SMILES: C[C@H]1O[C@@H](n2cc(-c3ccc(C#N)cc3)c3c(Nc4ccc(F)cc4)ncnc32)[C@H](O)[C@@H]1O [compound 132]
IC50 (adenosine kinase): 10 nM

SMILES: C[C@H]1O[C@@H](n2cc(-c3ccccc3)c3c(Nc4ccc(O)cc4)ncnc32)[C@H](O)[C@@H]1O [compound 20]
IC50 (adenosine kinase): 32 nM

SMILES: C[C@H]1O[C@@H](n2cc(-c3ccc(CNC(N)=O)cc3)c3c(Nc4ccc(F)cc4)ncnc32)[C@H](O)[C@@H]1O [compound 197]
Carrageenan Paw (% inh) ip [1]: 16.3 % inh
Carrageenan Paw (% inh) po [1]: 21.5 % inh

SMILES: [N-]=[N+]=NC[C@H]1O[C@@H](n2nc(-c3ccccc3)c3c(Nc4ccccc4)ncnc32)[C@H](O)[C@@H]1O [compound 87]
IC50 (adenosine kinase): 4.5 nM

SMILES: [N-]=[N+]=NC[C@H]1O[C@@H](n2nc(-c3ccc(Cl)cc3)c3c(Nc4ccccc4)ncnc32)[C@H](O)[C@@H]1O [compound 96]
IC50 (adenosine kinase): 15 nM

SMILES: C[C@H]1O[C@@H](n2cc(-c3ccccc3)c3c(Nc4ccc(N)cc4)ncnc32)[C@H](O)[C@@H]1O [compound 43]
ED50 [3]: 5 mg/kg
IC50 (adenosine kinase): 3 nM

SMILES: Cc1ccc(-c2cn([C@@H]3O[C@H](C)[C@@H](O)[C@H]3O)c3ncnc(Nc4ccccc4)c23)cc1 [compound 16]
IC50 (adenosine kinase): 9 nM

SMILES: CSc1ccc(Nc2ncnc3c2c(-c2ccccc2)cn3[C@@H]2O[C@H](C)[C@@H](O)[C@H]2O)cc1 [compound 40]
IC50 (adenosine kinase): 2 nM

SMILES: COc1ccc(-c2nn([C@@H]3O[C@H](CN=[N+]=[N-])[C@@H](O)[C@H]3O)c3ncnc(Nc4ccc(C)cc4)c23)cc1 [compound 95]
IC50 (adenosine kinase): 7 nM

SMILES: C[C@H]1O[C@@H](n2cc(-c3ccc(F)cc3)c3c(Nc4ccccc4)ncnc32)[C@H](O)[C@@H]1O [compound 24]
Carrageenan Paw (% inh) ip [1]: 35.6 % inh
Carrageenan Paw (% inh) po [1]: 21.3 % inh
IC50 (adenosine kinase): 1 nM

SMILES: COc1ccc(-c2cn([C@@H]3O[C@H](C)[C@@H](O)[C@H]3O)c3ncnc(Nc4ccc(C(N)=O)cc4)c23)cc1 [compound 31]
Carrageenan Paw (% inh) ip [1]: 17.2 % inh
Carrageenan Paw (% inh) po [1]: 0 % inh
IC50 (adenosine kinase): 2 nM

SMILES: COc1ccc(-c2cn([C@@H]3O[C@H](C)[C@@H](O)[C@H]3O)c3ncnc(Nc4ccc(F)cc4)c23)cc1 [compound 25]
% Inhibition Phase 1 Composite score [2]: 88.4%
% Inhibition Phase 2 Composite score [2]: 91.9%
% Inhibition Phase 2 Licking/biting [2]: 100%
IC50 (adenosine kinase): 10 nM

SMILES: COc1ccc(Nc2ncnc3c2c(-c2ccccc2)cn3[C@@H]2O[C@H](C)[C@@H](O)[C@H]2O)cc1 [compound 13]
IC50 (adenosine kinase): 6 nM

SMILES: C[C@H]1O[C@@H](n2cc(I)c3c(N)ncnc32)[C@H](O)[C@@H]1O [REF. A, reference compound]
Total Bilirubin [4]: 0.76 mg/dL
SGPT [4]: 76 IU/L

SMILES: C[C@H]1O[C@@H](n2nc(-c3ccccc3)c3c(Nc4ccccc4)ncnc32)[C@H](O)[C@@H]1O [compound 86]
IC50 (adenosine kinase): 4.5 nM

SMILES: NC[C@H]1O[C@@H](n2nc(Br)c3c(N)ncnc32)[C@H](O)[C@@H]1O [REF. B, 4amino-1-(5-amino-5-deoxy-1-D-ribofuranosyl)-3-bromopyrazolo[3,4d]pyrimidine, reference compound]
Total Bilirubin [4]: 0.30 mg/dL
SGPT [4]: 41 IU/L
SGOT [4]: 100 IU/L

SMILES: C[C@H]1O[C@@H](n2cc(-c3ccccc3)c3c(Nc4ccc(NC(=O)C(F)(F)F)cc4)ncnc32)[C@H](O)[C@@H]1O [compound 129]
Total Bilirubin [4]: 0.52 mg/dL
SGPT [4]: 54 IU/L
SGOT [4]: 162 IU/L
Alkaline Phosphatase [4]: 110 IU/L
Carrageenan Paw (% inh) ip [1]: 48.9 % inh
Carrageenan Paw (% inh) po [1]: 35.7 % inh
IC50 (adenosine kinase): 2 nM

SMILES: C[C@H]1O[C@@H](n2cc(-c3ccccc3)c3c(Nc4cccc(F)c4)ncnc32)[C@H](O)[C@@H]1O [compound 19]
IC50 (adenosine kinase): 2 nM

SMILES: C[C@H]1O[C@@H](n2cc(-c3cccc([N+](=O)[O-])c3)c3c(Nc4ccc(F)cc4)ncnc32)[C@H](O)[C@@H]1O [compound 30]
IC50 (adenosine kinase): 28 nM

SMILES: C[C@H]1O[C@@H](n2cc(-c3cccc(N)c3)c3c(Nc4ccc(F)cc4)ncnc32)[C@H](O)[C@@H]1O [compound 131]
Total Bilirubin [4]: 0.10 mg/dL
SGPT [4]: 65 IU/L
SGOT [4]: 120 IU/L
Alkaline Phosphatase [4]: 169 IU/L
Carrageenan Paw (% inh) ip [1]: 44.2 % inh
Carrageenan Paw (% inh) po [1]: 15.9 % inh
IC50 (adenosine kinase): 3 nM

Second part, led by results:

IC50 (adenosine kinase): 16 nM
SMILES: C[C@H]1O[C@@H](n2cc(-c3cccc(Cl)c3)c3c(Nc4ccccc4)ncnc32)[C@H](O)[C@@H]1O [compound 15]

IC50 (adenosine kinase): 20 nM
SMILES: CCc1ccc(Nc2ncnc3c2c(-c2ccccc2)cn3[C@@H]2O[C@H](C)[C@@H](O)[C@H]2O)cc1 [compound 29]
Carrageenan Paw (% inh) ip [1]: 46.1 % inh
Carrageenan Paw (% inh) po [1]: 10.7 % inh

IC50 (adenosine kinase): 11 nM
SMILES: C[C@H]1O[C@@H](n2nc(-c3ccccc3)c3c(Nc4ccc(Cl)cc4)ncnc32)[C@H](O)[C@@H]1O [compound 91]

IC50 (adenosine kinase): 1 nM
SMILES: C[C@H]1O[C@@H](n2cc(-c3ccccc3)c3c(Nc4cc(F)cc(F)c4)ncnc32)[C@H](O)[C@@H]1O [compound 10]

IC50 (adenosine kinase): 17 nM
SMILES: [N-]=[N+]=NC[C@H]1O[C@@H](n2nc(-c3ccccc3)c3c(Nc4ccc(Cl)cc4)ncnc32)[C@H](O)[C@@H]1O [compound 92]

IC50 (adenosine kinase): 4 nM
SMILES: C[C@H]1O[C@@H](n2cc(-c3ccccc3)c3c(Nc4ccc(I)cc4)ncnc32)[C@H](O)[C@@H]1O [compound 128]
Carrageenan Paw (% inh) ip [1]: 18.9 % inh
Carrageenan Paw (% inh) po [1]: 0.0 % inh

IC50 (adenosine kinase): 17 nM
SMILES: C[C@H]1O[C@@H](n2cc(-c3ccccc3)c3c(Nc4cccc(Cl)c4)ncnc32)[C@H](O)[C@@H]1O [compound 17]

IC50 (adenosine kinase): 8 nM
SMILES: COc1ccc(Nc2ncnc3c2c(-c2ccccc2)nn3[C@@H]2O[C@H](CN=[N+]=[N-])[C@@H](O)[C@H]2O)cc1 [compound 90]

IC50 (adenosine kinase): 42 nM
SMILES: C[C@H]1O[C@@H](n2c(Br)c(-c3ccccc3)c3c(Nc4ccc(F)cc4)ncnc32)[C@H](O)[C@@H]1O [compound 41]

IC50 (adenosine kinase): 3 nM
SMILES: COc1ccc(-c2nn([C@@H]3O[C@H](CN=[N+]=[N-])[C@@H](O)[C@H]3O)c3ncnc(Nc4ccccc4)c23)cc1 [compound 94]

IC50 (adenosine kinase): 20 nM
SMILES: Cc1ccc(-c2nn([C@@H]3O[C@H](CN=[N+]=[N-])[C@@H](O)[C@H]3O)c3ncnc(Nc4ccccc4)c23)cc1 [compound 93]

IC50 (adenosine kinase): 5 nM
SMILES: OC[C@H]1O[C@@H](n2nc(-c3ccccc3)c3c(Nc4ccccc4)ncnc32)[C@H](O)[C@@H]1O [compound 88]

IC50 (adenosine kinase): 4 nM
SMILES: Cc1cccc(Nc2ncnc3c2c(-c2ccccc2)cn3[C@@H]2O[C@H](C)[C@@H](O)[C@H]2O)c1 [compound 18]

IC50 (adenosine kinase): 17 nM
SMILES: COc1ccc(Nc2ncnc3c2c(-c2ccccc2)nn3[C@@H]2O[C@H](C)[C@@H](O)[C@H]2O)cc1 [compound 89]

IC50 (adenosine kinase): 4 nM
SMILES: C[C@H]1O[C@@H](n2cc(-c3ccccc3)c3c(Nc4ccc(F)c(F)c4)ncnc32)[C@H](O)[C@@H]1O [compound 11]

IC50 (adenosine kinase): 30 nM
SMILES: C[C@H]1O[C@@H](n2cc(-c3ccccc3)c3c(NCc4ccccc4)ncnc32)[C@H](O)[C@@H]1O [compound 38]

IC50 (adenosine kinase): 1 nM
SMILES: C[C@H]1O[C@@H](n2cc(-c3ccccc3)c3c(Nc4ccc(CC#N)cc4)ncnc32)[C@H](O)[C@@H]1O [compound 126]
